In patent publication US9611267B2, “Substituted tricyclic compounds as FGFR inhibitors” (Incyte Corporation, priority 2012, dated 2017):

How the values were obtained:
Format in all cases: biochemical
FGFR3 = FGFR3 (Homo sapiens (Human), UniProt P22607); assay: FGFR enzymatic assay (FRET peptide phosphorylation), FGFR3; conditions: FGFR3 enzyme (Millipore), ATP 140 μM
In short: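 FRET assay of peptide phosphorylation by FGFR3 in HEPES pH 7.5 buffer with MgCl2, EGTA, Tween-20 and DTT. Enzyme was pre-incubated 5-10 min with compound, and the reaction ran 1 hr at 25° C. IC50 came from a variable-slope sigmoidal fit.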

FGFR1 = FGFR1 (Homo sapiens (Human), UniProt P11362); assay: FGFR enzymatic assay (FRET peptide phosphorylation), FGFR1; conditions: FGFR1 enzyme 0.02 nM, ATP 210 μM
In short: (§1)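 Recombinant kinase was pre-incubated 5–10 min with serially diluted inhibitor in HEPES buffer (10 mM MgCl2, 5 mM DTT, pH 7.5; buffer described for FGFR3). Peptide phosphorylation ran 1 h at 25 °C and was detected by FRET after ~1 h equilibration. IC50 values come from variable-slope sigmoidal fits.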

FGFR2 = FGFR2 (Homo sapiens (Human), UniProt P21802); assay: FGFR enzymatic assay (FRET peptide phosphorylation), FGFR2; conditions: FGFR2 enzyme 0.01 nM, ATP 100 μM
In short: as §1

Measured: IC50

FGFR1, sequence (P11362 22-822): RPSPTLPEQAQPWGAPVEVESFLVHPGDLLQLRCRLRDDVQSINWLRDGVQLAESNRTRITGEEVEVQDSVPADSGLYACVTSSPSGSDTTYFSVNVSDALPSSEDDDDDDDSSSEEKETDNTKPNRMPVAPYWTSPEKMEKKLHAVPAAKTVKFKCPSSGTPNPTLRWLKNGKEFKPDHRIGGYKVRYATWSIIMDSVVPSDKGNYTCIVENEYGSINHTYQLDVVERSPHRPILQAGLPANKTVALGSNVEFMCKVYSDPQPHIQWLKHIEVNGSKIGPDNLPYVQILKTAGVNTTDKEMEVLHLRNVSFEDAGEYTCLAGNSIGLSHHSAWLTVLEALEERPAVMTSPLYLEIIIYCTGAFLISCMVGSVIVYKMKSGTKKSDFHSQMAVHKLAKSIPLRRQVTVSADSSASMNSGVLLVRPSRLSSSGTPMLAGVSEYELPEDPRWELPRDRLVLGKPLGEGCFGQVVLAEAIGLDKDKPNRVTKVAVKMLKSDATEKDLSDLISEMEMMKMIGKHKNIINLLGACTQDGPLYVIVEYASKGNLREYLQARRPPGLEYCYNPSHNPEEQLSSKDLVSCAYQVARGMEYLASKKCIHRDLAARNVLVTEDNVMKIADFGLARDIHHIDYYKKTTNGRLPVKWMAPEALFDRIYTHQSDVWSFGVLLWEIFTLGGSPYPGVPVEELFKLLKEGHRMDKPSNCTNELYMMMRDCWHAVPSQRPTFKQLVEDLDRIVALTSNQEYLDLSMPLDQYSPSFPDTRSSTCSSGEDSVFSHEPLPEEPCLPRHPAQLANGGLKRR
FGFR3, sequence (P22607 23-806): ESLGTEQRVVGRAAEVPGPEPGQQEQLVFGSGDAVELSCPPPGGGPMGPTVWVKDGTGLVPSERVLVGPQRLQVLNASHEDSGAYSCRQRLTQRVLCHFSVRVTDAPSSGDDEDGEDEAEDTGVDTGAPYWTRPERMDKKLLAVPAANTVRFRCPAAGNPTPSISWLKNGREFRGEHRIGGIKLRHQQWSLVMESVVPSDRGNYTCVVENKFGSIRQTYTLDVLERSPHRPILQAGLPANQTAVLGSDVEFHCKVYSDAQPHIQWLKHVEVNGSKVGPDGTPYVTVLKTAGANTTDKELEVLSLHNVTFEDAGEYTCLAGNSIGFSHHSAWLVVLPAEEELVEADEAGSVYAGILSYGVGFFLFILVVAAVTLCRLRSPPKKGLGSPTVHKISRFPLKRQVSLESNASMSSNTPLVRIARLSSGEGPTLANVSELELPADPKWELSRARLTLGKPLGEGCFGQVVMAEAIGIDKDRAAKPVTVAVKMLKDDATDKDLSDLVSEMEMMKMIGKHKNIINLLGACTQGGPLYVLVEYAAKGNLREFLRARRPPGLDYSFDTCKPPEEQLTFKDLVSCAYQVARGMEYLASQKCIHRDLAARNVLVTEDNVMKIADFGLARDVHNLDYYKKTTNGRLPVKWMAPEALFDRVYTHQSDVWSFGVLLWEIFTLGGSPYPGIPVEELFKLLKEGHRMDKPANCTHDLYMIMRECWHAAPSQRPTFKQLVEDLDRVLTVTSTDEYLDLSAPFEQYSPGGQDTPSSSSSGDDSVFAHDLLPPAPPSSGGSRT
FGFR2, sequence (P21802 22-821): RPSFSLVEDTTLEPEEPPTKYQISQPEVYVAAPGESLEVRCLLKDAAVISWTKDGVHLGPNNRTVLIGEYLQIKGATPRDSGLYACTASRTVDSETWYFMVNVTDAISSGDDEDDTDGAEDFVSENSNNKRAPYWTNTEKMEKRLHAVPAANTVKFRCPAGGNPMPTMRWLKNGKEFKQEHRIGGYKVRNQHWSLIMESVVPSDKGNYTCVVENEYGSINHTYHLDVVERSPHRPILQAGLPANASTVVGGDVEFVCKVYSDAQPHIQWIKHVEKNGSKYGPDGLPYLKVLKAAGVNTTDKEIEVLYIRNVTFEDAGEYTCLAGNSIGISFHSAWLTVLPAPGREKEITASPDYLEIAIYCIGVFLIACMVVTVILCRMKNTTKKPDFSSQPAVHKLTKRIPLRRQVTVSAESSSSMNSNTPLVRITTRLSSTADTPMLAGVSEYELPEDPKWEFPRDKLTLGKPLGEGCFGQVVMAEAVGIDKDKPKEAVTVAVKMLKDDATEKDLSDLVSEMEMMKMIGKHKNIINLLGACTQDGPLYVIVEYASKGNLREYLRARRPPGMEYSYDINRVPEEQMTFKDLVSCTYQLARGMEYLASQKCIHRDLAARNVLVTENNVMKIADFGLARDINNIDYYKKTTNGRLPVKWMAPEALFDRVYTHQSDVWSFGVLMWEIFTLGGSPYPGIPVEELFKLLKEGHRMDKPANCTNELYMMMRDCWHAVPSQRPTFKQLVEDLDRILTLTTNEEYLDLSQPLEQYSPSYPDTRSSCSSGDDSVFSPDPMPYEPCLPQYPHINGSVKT

CCN1CCN(Cc2cc3c4c(cnc3[nH]2)CN(c2c(F)c(OC)cc(OC)c2F)C(=O)N4c2cccc(F)c2F)CC1 [Example 193, 3-(2,6-difluoro-3,5-dimethoxyphenyl)-1-(2,3-difluorophenyl)-8-[(4-ethylpiperazin-1-yl)methyl]-1,3,4,7-tetrahydro-2H-pyrrolo[3′,2′:5,6]pyrido[4,3-d]pyrimidin-2-one]
< 100 nM: all assays above

COc1cc(OC)c(F)c(N2Cc3cnc4[nH]c(CN5CCOCC5)cc4c3N(c3ccncc3)C2=O)c1F [Example 194, 3-(2,6-difluoro-3,5-dimethoxyphenyl)-8-(morpholin-4-ylmethyl)-1-pyridin-4-yl-1,3,4,7-tetrahydro-2H-pyrrolo[3′,2′:5,6]pyrido[4,3-d]pyrimidin-2-one]
< 100 nM: all assays above

COc1cc(OC)c(F)c(N2Cc3cnc4[nH]c(CN5CCN(C)CC5)cc4c3N(c3ccncc3)C2=O)c1F [Example 195, 3-(2,6-difluoro-3,5-dimethoxyphenyl)-8-[(4-methylpiperazin-1-yl)methyl]-1-pyridin-4-yl-1,3,4,7-tetrahydro-2H-pyrrolo[3′,2′:5,6]pyrido[4,3-d]pyrimidin-2-one]
< 100 nM: all assays above

COc1cc(OC)c(F)c(N2Cc3cnc4[nH]c(CCN5CCOCC5)cc4c3N(c3ccccc3F)C2=O)c1F [Example 196, 3-(2,6-difluoro-3,5-dimethoxyphenyl)-1-(2-fluorophenyl)-8-(2-morpholin-4-ylethyl)-1,3,4,7-tetrahydro-2H-pyrrolo[3′,2′:5,6]pyrido[4,3-d]pyrimidin-2-one]
< 100 nM: all assays above

COc1cc(OC)c(F)c(N2Cc3cnc4[nH]c(CCN5CCN(C)CC5)cc4c3N(c3ccccc3F)C2=O)c1F [Example 197, 3-(2,6-difluoro-3,5-dimethoxyphenyl)-1-(2-fluorophenyl)-8-[2-(4-methylpiperazin-1-yl)ethyl]-1,3,4,7-tetrahydro-2H-pyrrolo[3′,2′:5,6]pyrido[4,3-d]pyrimidin-2-one]
< 100 nM: all assays above

CCN1CCN(CCc2cc3c4c(cnc3[nH]2)CN(c2c(F)c(OC)cc(OC)c2F)C(=O)N4c2ccccc2F)CC1 [Example 198, 3-(2,6-difluoro-3,5-dimethoxyphenyl)-1-(2-fluorophenyl)-8-[2-(4-ethylpiperazin-1-yl)ethyl]-1,3,4,7-tetrahydro-2H-pyrrolo[3′,2′:5,6]pyrido[4,3-d]pyrimidin-2-one]
< 100 nM: all assays above

COc1cc(OC)c(F)c(N2Cc3cnc4[nH]ncc4c3N(c3cccc(C(=O)NC(C)C)c3F)C2=O)c1F [Example 199, 3-[3-(2,6-difluoro-3,5-dimethoxyphenyl)-2-oxo-2,3,4,7-tetrahydro-1H-pyrazolo[4′,3′:5,6]pyrido[4,3-d]pyrimidin-1-yl]-2-fluoro-N-isopropylbenzamide]
< 100 nM: all assays above

COc1cc(OC)c(F)c(N2Cc3cnc4[nH]ncc4c3N(c3cccc(C(=O)NC4CC4)c3F)C2=O)c1F [Example 200, N-cyclopropyl-3-[3-(2,6-difluoro-3,5-dimethoxyphenyl)-2-oxo-2,3,4,7-tetrahydro-1H-pyrazolo[4′,3′:5,6]pyrido[4,3-d]pyrimidin-1-yl]-2-fluorobenzamide]
< 100 nM: all assays above

CCNC(=O)c1cccc(N2C(=O)N(c3c(F)c(OC)cc(OC)c3F)Cc3cnc4[nH]ncc4c32)c1F [Example 201, 3-[3-(2,6-difluoro-3,5-dimethoxyphenyl)-2-oxo-2,3,4,7-tetrahydro-1H-pyrazolo[4′,3′:5,6]pyrido[4,3-d]pyrimidin-1-yl]-N-ethyl-2-fluorobenzamide]
< 100 nM: all assays above

COc1cc(CN2C(=O)N(c3c(F)c(OC)cc(OC)c3F)Cc3cnc4[nH]c(CN5CCOCC5)cc4c32)ccn1 [Example 202, 3-(2,6-difluoro-3,5-dimethoxyphenyl)-1-[(2-methoxypyridin-4-yl)methyl]-8-(morpholin-4-ylmethyl)-1,3,4,7-tetrahydro-2H-pyrrolo[3′,2′:5,6]pyrido[4,3-d]pyrimidin-2-one]
< 100 nM: all assays above

COc1cc(OC)c(F)c(N2Cc3cnc4[nH]c(CN5CCOCC5)cc4c3N(c3cnn(C)c3)C2=O)c1F [Example 203, 3-(2,6-difluoro-3,5-dimethoxyphenyl)-1-(1-methyl-1H-pyrazol-4-yl)-8-(morpholin-4-ylmethyl)-1,3,4,7-tetrahydro-2H-pyrrolo[3′,2′:5,6]pyrido[4,3-d]pyrimidin-2-one]
< 100 nM: all assays above

COc1cc(OC)c(F)c(N2Cc3cnc4[nH]c(CN5CCN(C)CC5)cc4c3N(c3cnn(C)c3)C2=O)c1F [Example 204, 3-(2,6-difluoro-3,5-dimethoxyphenyl)-8-[(4-methylpiperazin-1-yl)methyl]-1-(1-methyl-1H-pyrazol-4-yl)-1,3,4,7-tetrahydro-2H-pyrrolo[3′,2′:5,6]pyrido[4,3-d]pyrimidin-2-one]
< 100 nM: all assays above

CCN1CCN(Cc2cc3c4c(cnc3[nH]2)CN(c2c(F)c(OC)cc(OC)c2F)C(=O)N4c2cnn(C)c2)CC1 [Example 205, 3-(2,6-difluoro-3,5-dimethoxyphenyl)-8-[(4-ethylpiperazin-1-yl)methyl]-1-(1-methyl-1H-pyrazol-4-yl)-1,3,4,7-tetrahydro-2H-pyrrolo[3′,2′:5,6]pyrido[4,3-d]pyrimidin-2-one]
< 100 nM: all assays above

COc1cc(OC)c(F)c(N2Cc3cnc4[nH]c(CN5CC(O)C5)cc4c3C(C)(C)C2=O)c1F [Example 206, 7-(2,6-difluoro-3,5-dimethoxyphenyl)-2-[(3-hydroxyazetidin-1-yl)methyl]-9,9-dimethyl-3,6,7,9-tetrahydro-8H-pyrrolo[2,3-c]-2,7-naphthyridin-8-one]
< 100 nM: all assays above

COc1cc(OC)c(F)c(N2Cc3cnc4[nH]c(CN5CC(F)C5)cc4c3C(C)(C)C2=O)c1F [Example 207, 7-(2,6-difluoro-3,5-dimethoxyphenyl)-2-[(3-fluoroazetidin-1-yl)methyl]-9,9-dimethyl-3,6,7,9-tetrahydro-8H-pyrrolo[2,3-c]-2,7-naphthyridin-8-one]
< 100 nM: all assays above

COc1cc(OC)c(F)c(N2Cc3cnc4[nH]c(CN5CC(C#N)C5)cc4c3N(C)C2=O)c1F [Example 208, 1-{[3-(2,6-difluoro-3,5-dimethoxyphenyl)-1-methyl-2-oxo-2,3,4,7-tetrahydro-1H-pyrrolo[3′,2′:5,6]pyrido[4,3-d]pyrimidin-8-yl]methyl}azetidine-3-carbonitrile]
< 100 nM: all assays above

COc1cc(OC)c(F)c(N2Cc3cnc4[nH]c(CN5CC[C@@H](C#N)C5)cc4c3N(C)C2=O)c1F [Example 209, (3R)-1-{[3-(2,6-difluoro-3,5-dimethoxyphenyl)-1-methyl-2-oxo-2,3,4,7-tetrahydro-1H-pyrrolo[3′,2′:5,6]pyrido[4,3-d]pyrimidin-8-yl]methyl}pyrrolidine-3-carbonitrile]
< 100 nM: all assays above

COc1cc(OC)c(F)c(N2Cc3cnc4[nH]c(CCN5CC(F)C5)cc4c3N(CCO)C2=O)c1F [Example 210, 3-(2,6-difluoro-3,5-dimethoxyphenyl)-8-[2-(3-fluoroazetidin-1-yl)ethyl]-1-(2-hydroxyethyl)-1,3,4,7-tetrahydro-2H-pyrrolo[3′,2′:5,6]pyrido[4,3-d]pyrimidin-2-one]
< 100 nM: all assays above

COc1cc(OC)c(F)c(N2Cc3cnc4[nH]c(CN5CCOCC5)cc4c3N(c3cccc(F)c3F)C2=O)c1F [Example 211, 3-(2,6-difluoro-3,5-dimethoxyphenyl)-1-(2,3-difluorophenyl)-8-(morpholin-4-ylmethyl)-1,3,4,7-tetrahydro-2H-pyrrolo[3′,2′:5,6]pyrido[4,3-d]pyrimidin-2-one]
< 100 nM: all assays above

COc1cc(OC)c(F)c(N2Cc3cnc4[nH]c(CN5CCOCC5)cc4c3N(c3cccc(F)c3)C2=O)c1F [Example 212, 3-(2,6-difluoro-3,5-dimethoxyphenyl)-1-(3-fluorophenyl)-8-(morpholin-4-ylmethyl)-1,3,4,7-tetrahydro-2H-pyrrolo[3′,2′:5,6]pyrido[4,3-d]pyrimidin-2-one]
< 100 nM: all assays above
